Like-named read-outs stand apart in the source and are kept apart here.
Assays:
[1] = target: T1, NS3/NS4A-2 (full-length HCV NS3 protease complexed with NS4A-2) (Hepatitis C virus genotype 1a, UniProt P27958); assay: NS3 inhibition assay (NS3-NS4 protease assay); format: biochemical; conditions: recombinant full-length NS3/NS4A-2, RETS1 substrate, kinetic fluorescence read; read-out: NS3-NS4 IC50
T1 construct: Recombinant E. coli or Baculovirus full-length NS3; host or cells: E. coli or baculovirus (insect cells)
Method: Recombinant E. coli or Baculovirus full-length NS3 was diluted to 3.33 μM with assay buffer and transferred material to an eppendorf tube and place in water bath in 4° C. refrigerator. The appropriate amount of NS4A-2 to 8.3 mM in assay buffer was added to equal the volume of NS3 in step 2.1.1 (conversion factor −3.8 mg/272 μL assay buffer). The material was transferred to an eppendorf tube and place in water bath in 4° C. refrigerator.
After equilibration to 4° C., equal volumes of NS3 and NS4A-2 solutions were combined in an eppendorf tube, mix gently with a manual pipettor, and incubate mixture for 15 minutes in the 4° C. water bath. Final concentrations in the mixture are 1.67 μM NS3, 4.15 mM NS4A-2 (2485-fold molar excess NS4A-2).
After 15 minutes at 4° C., the NS3/NS4A-2 eppendorf tube was removed and place it in a room temperature water bath for 10 minutes. NS3/NS4A-2 was aliquoted at appropriate volumes and store at −80° C. (E. coli NS3 run at 2 nM in assay, aliquot at 25 μL. BV NS3 run at 3 nM in assay, aliquot at 30 μL).
Sample compounds were dissolved to 10 mM in DMSO then diluted to 2.5 mM (1:4) in DMSO. Typically, compounds were added to an assay plate at 2.5 mM concentration, yielding upon dilution a starting concentration of 50 microM in the assay inhibition curve. Compounds were serial diluted in assay buffer to provide test solutions at lower concentrations.
The E. coli. NS3/NS4A-2 was diluted to 4 nM NS3 (1:417.5 of 1.67 μM stock−18 μL1.67 μM stock+7497 μL assay buffer). The BV NS3/NS4A-2 was diluted to 6 nM NS3 (1:278.3 of 1.67 μM stock−24 μL1.67 μM stock+6655 μL assay buffer). Using the manual multichannel pipettor, careful not to introduce bubbles into the plate, add 50 μL assay buffer to wells A01-H01 of a black Costar 96-well polypropylene storage plate.
Using the manual multichannel pipettor, careful not to introduce bubbles into the plate, add 50 μL of diluted NS3/NS4A-2 from step 2.2.6 to wells A02-H12 of plate in step 2.2.7. Using the manual multichannel pipettor, careful not to introduce bubbles into the plate, transfer 25 μL of the wells in drug dilution plate in step 2.2.5 to corresponding wells in assay plate in step 2.2.8. Change tips on multichannel pipettor for each row of compounds transferred. Using the manual multichannel pipettor, careful not to introduce bubbles into the plate, mix the wells from the assay plate in step 2.2.9 by aspirating and dispensing 35 μL of the 75 μL in each well five times. Change tips on multichannel pipettor for each row of wells mixed. Cover plate with a polystyrene plate lid and pre-incubate the plate from step 2.2.10 containing NS3 protease and sample compounds 10 minutes at room temperature. While plate from step 2.2.11 is pre-incubating, dilute RETS1 substrate in a 15 mL polypropylene centrifuge tube. Dilute RETS1 substrate to 8 μM (1:80.75 of 646 μM stock−65 μL 646 μM stock+5184 μL assay buffer).
After the plate in step is done pre-incubating, and using the manual multichannel, add 25 μL of substrate to all wells on the plate. Quickly mix the plate as in step 2.2.10, mixing 65 μL of the 100 μL in the wells.
Read the plate in kinetic mode on the Molecular Devices SpectraMax Gemini XS plate reader. Reader settings: Read time: 30 minutes, Interval: 36 seconds, Reads: 51, Excitation λ: 335 nm, Emission λ: 495 nm, cutoff: 475 nm, Automix: off, Calibrate: once, PMT: high, Reads/well: 6, Vmax pts: 21 or 28/51 depending on length of linearity of reaction
IC50s are determined using a four parameter curve fit equation, and converted to Ki's using the following Km's: • Full-length E. coli NS3−2.03 μM • Full-length BV NS3−1.74 μM • where Ki=IC50/(1+[S]/Km)) • Quantitation by ELISA of the Selectable Marker Protein, Neomycin Phosphotransferase II (NPTII) in the HCV Sub-Genomic Replicon, GS4.3

[2] = tested on: HCV sub-genomic replicon (1377/NS3-3') in HuH-7 hepatoma cells (GS4.3); assay: Quantitation by ELISA of NPTII in the HCV sub-genomic replicon, GS4.3; format: cell-based, hepatitis C virus (HCV); conditions: GS4.3 cells, 72 h incubation, NPTII ELISA, read-out: Replicon EC50
Method: The HCV sub-genomic replicon (1377/NS3-3′, accession No. AJ242652), stably maintained in HuH-7 hepatoma cells, was created by Lohmann et al. Science 285: 110-113 (1999). The replicon-containing cell culture, designated GS4.3, was obtained from Dr. Christoph Seeger of the Institute for Cancer Research, Fox Chase Cancer Center, Philadelphia, Pa.
GS4.3 cells were maintained at 37° C., 5% CO2, in DMEM (Gibco 11965-092) supplemented with L-glutamine 200 mM (100×) (Gibco25030-081), non-essential amino acids (NEAA) (Biowhittaker 13-114E), heat-inactivated (HI) Fetal Bovine Serum (FBS) (Hyclone SH3007.03) and 750 μg/mL geneticin (G418)(Gibco 10131-035). Cells were sub-divided 1:3 or 4 every 2-3 days.
24 h prior to the assay, GS4.3 cells were collected, counted, and plated in 96-well plates (Costar 3585) at 7500 cells/well in 100 μL standard maintenance medium (above) and incubated in the conditions above. To initiate the assay, culture medium was removed, cells were washed once with PBS (Gibco 10010-023) and 90 μl Assay Medium (DMEM, L-glutamine, NEAA, 10% HI FBS, no G418) was added. Inhibitors were made as a 10× stock in Assay Medium, (3-fold dilutions from 10 μM to 56 pM final concentration, final DMSO concentration 1%), 10 μL were added to duplicate wells, plates were rocked to mix, and incubated as above for 72 h.
An NPTII Elisa kit was obtained from AGDIA, Inc. (Compound direct ELISA test system for Neomycin Phosphotransferase II, PSP 73000/4800). Manufacturer's instructions were followed, with some modifications. 10×PEB-1 lysis buffer was made up to include 500 μM PMSF (Sigma P7626, 50 mM stock in isopropanol). After 72 h incubation, cells were washed once with PBS and 150 μL PEB-1 with PMSF was added per well. Plates were agitated vigorously for 15 minutes, room temperature, then frozen at −70° C. Plates were thawed, lysates were mixed thoroughly, and 100 μl were applied to an NPTII Elisa plate. A standard curve was made. Lysate from DMSO-treated control cells was pooled, serially diluted with PEB-1 with PMSF, and applied to duplicate wells of the ELISA plate, in a range of initial lysate amount of 150 μL-2.5 μL. In addition, 100 μL buffer alone was applied in duplicate as a blank. Plates were sealed and gently agitated at room temperature for 2 h. Following capture incubation, the plates were washed 5×300 μL with PBS-T (0.5% Tween-20, PBS-T was supplied in the ELISA kit). For detection, a 1× dilution of enzyme conjugate diluent MRS-2 (5×) was made in PBS-T, into which 1:100 dilutions of enzyme conjugates A and B were added, as per instructions. Plates were resealed, and incubated with agitation, covered, room temperature, for 2 h. The washing was then repeated and 100 μL of room temperature TMB substrate was added. After approximately 30 minutes incubation (room temperature, agitation, covered), the reaction was stopped with 50 μL 3M sulfuric acid. Plates were read at 450 nm on a Molecular Devices Versamax plate reader.
Inhibitor effect was expressed as a percentage of DMSO-treated control signal, and inhibition curves were calculated using a 4-parameter equation: y=A+((B−A)/(1+((C/x)^D))), where C is half-maximal activity or EC50.

T1 sequence (P27958 1027-1657, one chain of several): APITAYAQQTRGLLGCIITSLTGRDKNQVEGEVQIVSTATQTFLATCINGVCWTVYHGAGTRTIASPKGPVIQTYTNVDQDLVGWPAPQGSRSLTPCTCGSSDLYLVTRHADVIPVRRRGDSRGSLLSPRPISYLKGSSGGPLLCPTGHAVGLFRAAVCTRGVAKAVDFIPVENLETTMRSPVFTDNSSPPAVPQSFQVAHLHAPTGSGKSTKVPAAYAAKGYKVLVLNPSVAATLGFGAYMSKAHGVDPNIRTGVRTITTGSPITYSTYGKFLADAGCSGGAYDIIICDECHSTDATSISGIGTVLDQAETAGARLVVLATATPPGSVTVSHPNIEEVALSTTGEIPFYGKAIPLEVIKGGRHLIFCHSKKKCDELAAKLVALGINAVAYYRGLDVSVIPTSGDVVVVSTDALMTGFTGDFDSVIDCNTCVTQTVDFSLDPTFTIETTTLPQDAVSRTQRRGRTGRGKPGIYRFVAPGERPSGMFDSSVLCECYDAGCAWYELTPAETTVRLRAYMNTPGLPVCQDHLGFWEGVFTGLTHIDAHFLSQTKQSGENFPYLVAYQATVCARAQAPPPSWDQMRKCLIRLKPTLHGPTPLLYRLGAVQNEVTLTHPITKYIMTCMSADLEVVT

Compound	IC50 [1]	EC50 ([2]; Hepatitis C virus, Huh-7)	EC50 [2]
C=C[C@@H]1C[C@]1(NC(=O)[C@@H]1C[C@@H](OC(=O)N2Cc3cccc(F)c3C2)CN1C(=O)[C@@H](Nc1ccc(F)cc1)C(C)(C)C)C(=O)NS(=O)(=O)C1CC1 [Compound 37, [(3R,5S)-5-((1R,2S)-1-(cyclopropylsulfonylcarbamoyl)-2-vinylcyclopropylcarbamoyl)-1-((S)-2-(4-fluorophenylamino)-3,3-methylbutanoyl)pyrrolidin-3-yl]4-fluoroisoindoline-2-carboxylate]	< 100 nM	< 100 nM	
CC[C@@H]1C[C@]1(NC(=O)[C@@H]1C[C@@H](OC(=O)N2Cc3cccc(F)c3C2)CN1C(=O)[C@@H](Nc1cccc(C(F)(F)F)c1)C(C)(C)C)C(=O)NS(=O)(=O)C1CC1 [Compound 56, [(3R,5S)-5-((1R,2R)-1-(cyclopropylsulfonylcarbamoyl)-2-ethylcyclopropylcarbamoyl)-1-((S)-3,3-dimethyl-2-(3-(trifluoromethyl)phenylamino)butanoyl)pyrrolidin-3-yl]4-fluoroisoindoline-2-carboxylate]	< 100 nM	< 100 nM	
C=C[C@@H]1C[C@]1(NC(=O)[C@@H]1C[C@@H](OC(=O)N2Cc3cccc(F)c3C2)CN1C(=O)[C@@H](Nc1ccc(C(C)(C)C)cc1)C(C)C)C(=O)NS(=O)(=O)C1CC1 [Compound 38, [(3R,5S)-1-((S)-2-(4-tert-butylphenylamino)-3-methylbutanoyl)-5-((1R,2S)-1-(cyclopropylsulfonylcarbamoyl)-2-vinylcyclopropylcarbamoyl)pyrrolidin-3-yl]4-fluoroisoindoline-2-carboxylate]	< 100 nM	100 to 1000 nM	
C=C[C@@H]1C[C@]1(NC(=O)[C@@H]1C[C@@H](OC(=O)N2Cc3cccc(F)c3C2)CN1C(=O)[C@@H](Nc1cncc(C(F)(F)F)c1)C(C)C)C(=O)NS(=O)(=O)C1CC1 [Compound 44, [(3R,5S)-5-((1R,2S)-1-(cyclopropylsulfonylcarbamoyl)-2-vinylcyclopropylcarbamoyl)-1-((S)-3-methyl-2-(5-(trifluoromethyl)pyridin-3-ylamino)butanoyl)pyrrolidin-3-yl]4-fluoroisoindoline-2-carboxylate]	< 100 nM	100 to 1000 nM	
CC[C@@H]1CC1(NC(=O)[C@@H]1C[C@@H](OC(=O)N2Cc3cccc(Cl)c3C2)CN1C(=O)[C@@H](Nc1cccnc1)C(C)(C)C)C(=O)NS(=O)(=O)C1CC1 (some centres unmarked) [Compound 74]	< 100 nM	< 100 nM	
C=C[C@@H]1C[C@]1(NC(=O)[C@H]1Cc2cc(Oc3cccc(Cl)c3)ccc2CN1C(=O)[C@@H](Nc1ccc(F)cc1)C(C)(C)C)C(=O)NS(=O)(=O)C1CC1 [Compound 12, (R)-6-(3-chlorophenoxy)-N-((1R,2S)-1-(cyclopropylsulfonylcarbamoyl)-2-vinylcyclopropyl)-2-((S)-2-(4-fluorophenylamino)-3,3-dimethylbutanoyl)-1,2,3,4-tetrahydroisoquinoline-3-carboxamide]	100 to 1000 nM	10000 to 50000 nM	
CC[C@@H]1C[C@]1(NC(=O)[C@@H]1C[C@@H](OC(=O)N2Cc3cccc(Cl)c3C2)CN1C(=O)[C@@H](Nc1cccc(N2CCOCC2)c1)C(C)(C)C)C(=O)NS(=O)(=O)C1CC1 [Compound 75]	< 100 nM	< 100 nM	
C=C[C@@H]1C[C@]1(NC(=O)C1Cc2cc(Oc3cccc(Cl)c3)ccc2CN1C(=O)[C@@H](Nc1ccc(F)cc1)C(C)(C)C)C(=O)NS(=O)(=O)C1CC1 (stereo partly drawn) [Compound 10, 6-(3-chlorophenoxy)-N-((1R,2S)-1-(cyclopropylsulfonylcarbamoyl)-2-vinylcyclopropyl)-2-((S)-2-(4-fluorophenylamino)-3,3-dimethylbutanoyl)-1,2,3,4-tetrahydroisoquinoline-3-carboxamide]	< 100 nM	1000 to 10000 nM	
[(3R,5S)-5-(((1R,2S)-1-(cyclopropylsulfonylcarbamoyl)-2-vinylcyclopropyl)carbamoyl)-1-((S)-2-cyclohexyl-2-(5-ethylthiazol-2-ylamino)acetyl)pyrrolidin-3-yl]4-chloroisoindoline-2-carboxylate [Compound 62]	< 100 nM		< 100 nM
CC[C@@H]1C[C@]1(NC(=O)[C@@H]1C[C@@H](OC(=O)N2Cc3cccc(F)c3C2)CN1C(=O)[C@@H](Nc1cccc(C)c1)C(C)C)C(=O)NS(=O)(=O)C1CC1 [Compound 49, [(3R,5S)-5-((1R,2R)-1-(cyclopropylsulfonylcarbamoyl)-2-ethylcyclopropylcarbamoyl)-1-((S)-3-methyl-2-(m-tolylamino)butanoyl)pyrrolidin-3-yl]4-fluoroisoindoline-2-carboxylate]	< 100 nM	100 to 1000 nM	
